We go through 41 molecules from the Deep4Chem optical property database.

Structures are written as SMILES. Values joined by “and” are separate entries in the source; they are usually repeats but may differ in a detail not shown here. Equal entries are not always repeated.

The series is described as follows: solvent given as SMILES.

Turning to `c1ccc(-c2nc(-c3ccc(-c4nc(-c5ccccc5)c(-c5ccccc5)[nH]4)cc3)[nH]c2-c2ccccc2)cc1`, the emission maximum is 421 nm (in C1CCOC1); 423.5 nm and 424 nm (in CC#N); 482 nm (in CC(=O)O); 420 nm (in CC(C)=O); 420 nm (in CCOC(C)=O); 419 nm (in CCOCC). For the same molecule, the emission maximum (in CO) is 417 nm, the emission maximum (in CS(C)=O) is recorded as 410 nm and the emission maximum (in ClC(Cl)Cl) was 437 nm.
As to `N#C/C(=C/Nc1ccc(C#N)cc1)c1nc(-c2ccccc2)cs1`, the emission maximum is 434 nm (in CCO), 436 nm (in CN(C)C=O), 438 nm (in Cc1ccccc1) and 437 nm (in ClCCl).
For the setting “in ClCCl”, `CC(C)(C)c1ccc(-c2cc(-c3ccc(-c4cc(-c5ccc(C(C)(C)C)cc5)c(C(=O)N5CCCCC5)s4)s3)sc2C(=O)N2CCCCC2)cc1` yielded an emission maximum of 461 nm.
Under “in O”, `CCn1c2ccc(S(=O)(=O)O)cc2c(=O)c2cc3c(cc21)c(=O)c1cc(S(=O)(=O)O)ccc1n3CCCCCC(=O)O` returned an emission maximum of 559 nm.
Consider `CCOC(=O)c1ccc(O)c(-c2[nH]c(=O)n3c2-c2ccccc2C3=O)c1`, for which the emission maximum reads like this: (in CC#N) 476 nm; (in CO) 490 nm; (in ClCCl) 474 nm.
Turning to `CCN(CC)c1ccc2c(-c3ccccc3C(=O)O)c3c([o+]c2c1)/C(=C/c1nc(C)n2ccccc12)CCC3`, the emission maximum (in ClCCl) was 735 nm.
With `O=Cc1ccc(N(c2ccc(C=O)cc2)c2ccc(-c3ccc4c(c3)C(=O)c3ccccc3C4=O)cc2)cc1`, the emission maximum (in C1CCOC1) is given as 662 nm; the emission maximum (in CCCCCC) is 493 nm; the emission maximum (in CCOC(C)=O) is reported as 654 nm; the emission maximum (in CCOCC) is listed as 585 nm; the emission maximum (in Cc1ccccc1) amounted to 558 nm; the emission maximum (in ClC(Cl)(Cl)Cl) worked out at 541 nm. Where the note is “in ClCCl”, this molecule gave an emission maximum of 685 nm.
Under “in C1CCOC1”, `N#Cc1c(N2CCCCC2)cc(-c2ccc3ccc4cccc5ccc2c3c45)c2c1Cc1ccccc1-2` yielded an emission maximum of 481 nm.
Turning to `COC(=O)C[C@H](Cc1c[nH]c2ccccc12)NC(=O)[C@H](CC(=O)N[C@@H](CC1=CCc2ccccc21)C(=O)OC)NC(=O)[C@H](Cc1c[nH]c2ccccc12)NC(=O)OC(C)(C)C`, the emission maximum is on record as 334 nm (in CC#N), 330 nm (in CCOC(C)=O) and 338 nm (in CO).
`COC(=O)C1=C(C(=O)OC)C2=C[C@H]3c4ccccc4[C@]2(S1)c1ccccc13`: the emission maximum reads like this: (in C1CCOC1) 477 nm; (in CC#N) 489 nm; (in CCCCCC) 465 nm; (in CCOCC) 473 nm; (in CO) 500 nm; (in ClCCl) 488 nm. The emission maximum (in c1ccccc1) is reported as 477 nm.
In the case of `O=C([O-])c1c(Cl)c(Cl)c(Cl)c(Cl)c1-c1c2cc(I)c(=O)c(I)c-2oc2c(I)c([O-])c(I)cc12`, the emission maximum reads like this: (in CC(C)O) 576 nm; (in CCO) 573 nm; (in CO) 571 nm; (in O) 566 nm.
As to `CC(C)[Si](C#Cc1ccc2c(C#C[Si](C(C)C)(C(C)C)C(C)C)cc3c4cc(C#C[Si](C(C)C)(C(C)C)C(C)C)ccc4c(C#C[Si](C(C)C)(C(C)C)C(C)C)cc3c2c1)(C(C)C)C(C)C`, the emission maximum (in ClCCl) is recorded as 408 nm.
Turning to `N#Cc1cnc(-c2c3ccccc3c(-c3ncc(C#N)cn3)c3ccccc23)nc1`, the emission maximum reads like this: (in CCO) 503 nm; (in ClCCl) 500 nm.
With `CN(C)c1ccc(-c2nc3nc4ccccc4nc3n2-c2ccccc2)cc1`, the emission maximum (in CC#N) worked out at 528 nm.
Turning to `COc1ccc2c(c1)c1cc(OC)ccc1n2-c1cccc(-n2c3ccc(OC)cc3c3cc(OC)ccc32)c1C#N`, the emission maximum came out at 460 nm (in Cc1ccccc1) and 462 nm (in O=P(c1ccccc1)(c1ccccc1)c1ccccc1Oc1ccccc1P(=O)(c1ccccc1)c1ccccc1).
Molecule `COc1ccc(N(c2ccc(C=C(c3ccccc3)c3ccccc3)cc2)c2ccc(OC)cc2)cc1` showed an emission maximum (in Cc1ccccc1) of 489 nm.
As to `CC(=O)c1ccc(-c2nc3ccc(N(C)C)c(Cl)c3s2)cc1`, the emission maximum was 424 nm (in C1CCCCC1); 568 nm (in CC#N); 585.02 nm (in CC(C)O); 629 nm (in CO); 569.23 nm (in CS(C)=O); 506 nm (in ClC(Cl)Cl). Also, the emission maximum (in c1ccccc1) turned out to be 474.9 nm.
Where the note is “in ClCCl”, `CCCCC(CC)COc1cc(OCC(CC)CCCC)c2c#cc3ccc4sc5ccc(c#cc6cc(c#cc7ccc8sc9ccc(c#cc1c2)cc9c8c7)c(C(CCCC)OCCC)cc6C(CCCC)OCCC)cc5c4c3` (centres undefined) returned an emission maximum of 377 nm.
`COc1cc(OC)c2c(c1)c1cc3oc(=O)cc(C)c3cc1c1cc(OC)cc(OC)c12` gave an emission maximum (in ClC(Cl)Cl) of 538 nm.
Consider `COC(=O)c1cc(=O)n(C)c2cc(-c3ccccc3N(C)C)sc12`, for which the emission maximum runs as follows: (in CC#N) 484 nm; (in ClCCl) 537 nm.
Molecule `CC1(C)Nc2cc3nc4cc(F)c(F)cc4nc3cc2N1` came in with an emission maximum (in CCO) of 496 nm.
As to `CCn1c(-c2ccc(-c3ccc(-c4ccc(-c5n(CC)c6cc(C)ccc6[n+]5CC)cc4)cc3)cc2)[n+](CC)c2ccc(C)cc21`, the emission maximum (in O) turned out to be 397 nm.
As to `COc1cc(OC)c2c(c1)c1c(c3ccc(C(C)(C)C)cc32)=[N+]2C(=Nc3c(-c4cc(OC)c(OC)c(OC)c4)c4c5cc(OC)cc(OC)c5c5cc(C(C)(C)C)ccc5c4n3[B-]2(F)F)C=1c1cc(OC)c(OC)c(OC)c1`, the emission maximum (in Cc1ccccc1) is 809 nm.
Where the note is “in Cc1ccccc1”, `C(#Cc1cc2ccc3cccc4ccc(c1)c2c34)c1ccccc1` registered an emission maximum of 399 nm.
For `COc1ccc(-c2c3ccccc3c(C#Cc3ccccc3)c3ccccc23)cc1`, the emission maximum (in ClCCl) was 452 nm.
As to `Cc1cccc2ccccc12`, where the note is “in C1CCCCC1”, the emission maximum was determined as 339.9 nm.
`O=C1c2ccc(-c3ccc(N(c4ccc(-c5ccccc5)cc4)c4ccc(-c5ccccc5)cc4)cc3)cc2C(=O)c2ccc(-c3ccc(N(c4ccc(-c5ccccc5)cc4)c4ccc(-c5ccccc5)cc4)cc3)cc21`: the emission maximum is, setting by setting: (in Cc1ccccc1) 608 nm; (in c1ccc2c(c1)c1ccccc1n2-c1ccc(-c2ccc(-n3c4ccccc4c4ccccc43)cc2)cc1) 601 nm.
As to `COC(=O)/C(C#N)=c1/cc/c(=c2/cc/c(=C(\C#N)C(=O)OC)s2)s1`, the emission maximum (in Cc1ccccc1) came out at 601 nm.
For `O=P1(c2ccccc2)C(c2ccc(N(c3ccccc3)c3ccccc3)cc2)=Cc2cc3ccccc3cc21` (centres undefined), the emission maximum is 511 nm (in C1CCOC1); 561 nm (in CC#N); 551 nm (in CN(C)C=O); 478 nm (in Cc1ccccc1); 516 nm (in ClC(Cl)Cl); 533 nm (in ClCCl).
Molecule `CC1=C(C#Cc2ccc(N(c3ccccc3)c3ccccc3)cc2)C(C)=[N+]2C1=C(c1ccccc1)c1c(C)c(C#Cc3ccc(N(c4ccccc4)c4ccccc4)cc3)c(C)n1[B-]2(F)F` returned an emission maximum (in C1CCOC1) of 659 nm.
As for `COc1ccc(C2=c3sc(-c4ccc(OC)cc4)c(-c4ccc(OC)cc4)c3=[N+]3C2=Nc2c(-c4ccc(OC)cc4)c4sc(-c5ccc(OC)cc5)c(-c5ccc(OC)cc5)c4n2[B-]3(F)F)cc1`, where the note is “in ClC(Cl)Cl”, the emission maximum came to 816 nm.
Consider `CNc1ccc(/C=C/C#N)cc1`, for which the emission maximum by setting is: (in C1CCCCC1) 368 nm; (in C1CCOC1) 419 nm; (in C1COCCO1) 399 nm; (in CC1CCCCC1) 391 nm; (in CC#N) 421 nm; (in CC(C)O) 408 nm. Besides, the emission maximum (in CCO) is recorded as 414 nm, the emission maximum (in CO) turned out to be 423 nm, the emission maximum (in ClC(Cl)Cl) turned out to be 404 nm and the emission maximum (in O) amounted to 445 nm.
In turn, `C=CCN(CC=C)c1ccc(-c2cc(-c3ccc(N(CC=C)CC=C)cc3)cc(-c3ccc(N(CC=C)CC=C)cc3)c2)cc1` registered an emission maximum (in ClCCl) of 397.56 nm.
In the case of `CC1=C(C2=C(C)C(C)=[N+]3C2=Cc2cc(C)c(C)n2[B-]3(F)F)C2=Cc3cc(C)c(C)n3[B-](F)(F)[N+]2=C1C`, the emission maximum (in ClCCl) came to 598 nm.
Take `CC(C)(C)c1ccc2oc3nc4oc5ccc(N6c7ccccc7Oc7ccccc76)cc5c4cc3c2c1`: the emission maximum (in ClC(Cl)Cl) is reported as 491 nm.
Under “in C1CCOC1”, `O=C(c1ccc(C(=C(c2ccc(C(=O)c3ccc(-n4c5ccccc5c5ccccc54)cc3)cc2)c2ccc(C(=O)c3ccc(-n4c5ccccc5c5ccccc54)cc3)cc2)c2ccccc2)cc1)c1ccc(-n2c3ccccc3c3ccccc32)cc1` returned an emission maximum of 503 nm.
As for `N#Cc1c(N2CCCCC2)cc(-c2cccs2)c2c1CCc1ccccc1-2`, the emission maximum (in C1CCOC1) came to 474 nm.
For the molecule `CC[N+]1(CC)CN2C(=N1)C(C(=O)O)=Cc1ccccc12`, the emission maximum is reported as 463 nm (in CN(C)C=O) and 462 nm (in O).
Regarding `COC(=O)COc1ccc(/C=C/C2=[N+]3C(=C(c4ccc(N(C)C)cc4)c4c(C)cc(C)n4[B-]3(F)F)C(C)=C2)cc1`, under “in CO”, the emission maximum worked out at 580 nm.
For `CCCCOc1ccc(-c2oc3c(-c4ccc(OCCCC)cc4)c4n(c3c2-c2ccc(OCCCC)cc2)[B-](F)(F)[N+]2=Cc3c(-c5ccc(OCCCC)cc5)c5oc(-c6ccc(OCCCC)cc6)c(-c6ccc(OCCCC)cc6)c5n3[B-](F)(F)[N+]2=C4)cc1`, the emission maximum reads like this: (in C1CCOC1) 663 nm; (in CN(C)C=O) 672 nm; (in CS(C)=O) 676 nm; (in Cc1ccccc1) 668 nm; (in ClC(Cl)Cl) 666 nm; (in ClCCl) 667 nm.
In the case of `CC1(C)Oc2c(c3nc4ccccc4nc3c3ccccc23)CC1Br` (centres undefined), the emission maximum by setting is: (in C1CCCCC1) 431.03 nm; (in C1CCOC1) 448.83 nm; (in C1COCCO1) 449.44 nm; (in CC#N) 457.04 nm; (in CC(C)O) 464.25 nm; (in CCCCCC) 430.66 nm. Further, the emission maximum was 458.3 nm (in CN(C)C=O), 475.96 nm (in CO) and 444.25 nm (in c1ccccc1).
